According to patent US8252801B1, “Treatment of schizophrenia and related disorders” (Abbott Laboratories, priority 2009, dated 2012):
Where two headings read alike, the source gives them in different places.

Tests used:
[1] = cited from earlier work
Male DBA/2J mice [2] = assay: Prepulse inhibition (PPI) model, Compound A on a subefficacious dose of risperidone; assay type: in vivo, mouse; conditions: FIG. 2
Method: Animals: Male DBA/2J mice (Jackson Labs AX9 facility, Bar Harbor, Me., USA) at age 6-8 weeks old were used. They were housed under standard facility conditions in groups of eight on a 12 h light/dark cycle (lights on at 0600 h) with ad libitum access to food and water. Chemicals: 2-{4′-[(3aR,6aR)-5-Methylhexahydropyrrolo[3,4-b]pyrrol-1(2H)-yl]-1,1′-biphenyl-4-yl}pyridazin-3(2H)-one was prepared at Abbott Laboratories; risperidone (3-[2-[4-(6-fluoro-1,2-benzisoxazol-3-yl)-1-piperidinyl]ethyl]-6,7,8,9-tetrahydro-2-methyl-4H-pyridol[1,2-a]pyrimidin-4-one, MW 410.5) was obtained from ICN Biomedicals Inc. (Aurora, Ohio, USA). […] Experimental Procedure: Startle response and PPI were measured using startle chambers from Hamilton Kinder (Poway, Calif., USA). […] In the startle alone trials, the amount of PPI was calculated as a percentage score for each acoustic prepulse trial type using (typically) the formula: […]. Statistics: Data were analyzed using a one-way ANOVA. All post hoc significance was determined using Dunnett's multiple comparison test (p<0.05 was regarded as significance). […]
Statistics: Data were analyzed using a one-way ANOVA. All post hoc significance was determined using Dunnett's multiple comparison test (p<0.05 was regarded as significance).

Male Sprague Dawley rats = assay: Catalepsy (bar test), Compound A in combination with risperidone; assay type: in vivo, rat; conditions: Compound A 0.1 or 1.0 mg/kg i.p. 10 min prior to risperidone 2.5 mg/kg i.p.; total catalepsy over 60-240 min; FIG. 3
Method: Animals: Male Sprague Dawley rats (CRL: CD (SD), Charles River Laboratories, Omaha, Nebr., USA) weighing 300-325 g were used for the experiment. They were housed under standard conditions in groups of 4 rats on a 12 h light/dark cycle (lights on at 0600 h) with ad libitum access to food and water. Preparation of Compounds: 2-{4′-[(3aR,6aR)-5-Methylhexahydropyrrolo[3,4-b]pyrrol-1(2H)-yl]-1,1′-biphenyl-4-yl}pyridazin-3(2H)-one (Compound A) and risperidone were solubilized as described above, and were administered in solution in a volume of 1.0 ml/kg body weight. Experimental Procedure: Rats were handled and habituated to the testing room before starting. […] The degree of catalepsy was measured by gently placing both forepaws over a metal bar (1.1 cm. diameter suspended 8 cm. above the table top). The time in seconds until the rat took both paws off the bar was recorded, with a maximum cut-off of 300 seconds. […] At least 5 trials were attempted on each rat with 5 seconds used as a low-end cut-off for catalepsy (time scored as zero). For catalepsy times between 5-15 seconds, the highest time of 5 trials was recorded. Alternately, any catalepsy trial time that was greater than 15 seconds (up to 300 seconds) was recorded. Statistics: Data for the 4 times points were summed across the session, and the total catalepsy scores were analyzed using a one-way analysis of variance (ANOVA). […]

Male DBA/2J mice [3] = assay: Prepulse inhibition (PPI) model, Compound A alone; assay type: in vivo, mouse; conditions: Compound A alone at 0.01, 0.1 and 1.0 mg/kg i.p., 30 min before testing; FIG. 1
From the text: Dysfunctions of sensory gating and information processing have been putatively associated with clinical features such as perpetual aberrations, hallucinations and distraction and been considered as potential precursors of sensory overload, cognitive fragmentation and disorganization. Among the physiological measures, one approach has involved the startle reflex with the prepulse inhibition (PPI) paradigm. […] PPI refers to a reduction in the acoustic startle reflex to a loud noise when the loud noise is preceded by a weak auditory stimulus. At short lead intervals, this has the effect of markedly reducing or gating the amplitude of the startle response and increasing its latency. Disruption of PPI occurs with agonists of dopamine and serotonin, and with glutamate/N-methyl D aspartate (NMDA) receptor antagonists, or can be induced by genetic (e.g., DBA2 mouse strain) and experimental manipulations (e.g., rearing rats in isolation, neurotoxic lesions, or other methods). […] (Olivier B., et al., Psychopharmacology (2001) vol. 156:284-290; Ouagazzal A-M., Psychopharmacology (2001) vol. 156:273-283; Simosky J. K., Psychopharmacology (2003) vol. 165:386-396). […]
Animals: Male DBA/2J mice (Jackson Labs AX9 facility, Bar Harbor, Me., USA) at age 6-8 weeks old were used. […] Experimental Procedure: Startle response and PPI were measured using startle chambers from Hamilton Kinder (Poway, Calif., USA). […]

[4] = clinical use, Table 1, hyperprolactinaemia
[5] = clinical use, Table 1, sexual dysfunction

Compound: O=C1CCc2ccc(OCCCCN3CCN(c4cccc(Cl)c4Cl)CC3)cc2N1 [Arpiprazole]
- Dose of Increased Side Effect Risk (somnolence), in words ([1]; Table 2): dose dependent
- Other Dose Related Side Effects ([1]; clinical use, Table 1): somnolence

Compound: CN1CCN(C2=Nc3cc(Cl)ccc3Nc3ccccc32)CC1 [Clozapine, 8-chloro-11-(4-methyl-1-piperazinyl)-5H-dibenzo[b,e][1,4]diazepine]
- Dose of Increased Side Effect Risk (low risk for seizures) ([1]; Table 2): <300 mg/day
- Dose of Increased Side Effect Risk (moderate risk for seizures) ([1]; Table 2): 300 to 599 mg/day

Compound: CN1C[C@H]2CCN(c3ccc(-c4ccc(-n5ncccc5=O)cc4)cc3)[C@H]2C1 [Compound A, 2-{4′-[(3aR,6aR)-5-methylhexahydropyrrolo[3,4-b]pyrrol-1(2H)-yl]-1,1′-biphenyl-4-yl}pyridazin-3(2H)-one]
- efficacy of risperidone (0.1 mg/kg) in PPI in combination with 0.1 mg/kg Compound A (Male DBA/2J mice [2]; 0.1 mg/kg Compound A + 0.1 mg/kg risperidone, comparable to 1.0 mg/kg risperidone): attained maximal efficacy
- efficacy of risperidone (0.1 mg/kg) in PPI in the presence of Compound A (Male DBA/2J mice [2]; Compound A 0.01, 0.1 or 1.0 mg/kg i.p. 35 min, risperidone 0.1 mg/kg 25 min prior to testing): more efficacious
- cataleptic behavior of risperidone when administered in combination (Male Sprague Dawley rats): did not significantly alter cataleptic behavior
- PPI responding (Male DBA/2J mice [3]): did not significantly alter PPI responding

Compound: O=C(CCCN1CCC(O)(c2ccc(Cl)cc2)CC1)c1ccc(F)cc1 [Haloperidol, 4-(4-chlorophenyl)-1-[4-(4-fluorophenyl)-4-oxobutyl]-4 piperidinyl]
- Dose of Increased Side Effect Risk ([1]; Table 2, risk for EPS): ~3 mg
- Other Dose Related Side Effects [1, 4]: hyper-
- Other Dose Related Side Effects [1, 5]: sexual

Compound: Cc1nc2n(c(=O)c1CCN1CCC(c3noc4cc(F)ccc34)CC1)CCCC2 [Risperidone, 3-[2-[4-(6-fluoro-1,2-benzisoxazol-3-yl)piperidino]ethyl]-2-methyl-6,7,8,9-tetrahydro-4H-pyrido-[1,2-a]pyrimidin-4-one]
- Dose of Increased Side Effect Risk (EPS risk) ([1]; Table 2): ≧6 mg/day
- Other Dose Related Side Effects [1, 4]: hyper-
- Other Dose Related Side Effects [1, 5]: sexual

Compound: O=C1Cc2cc(CCN3CCN(c4nsc5ccccc45)CC3)c(Cl)cc2N1 [Ziprasidone, 5-[2-[4-(1,2-benzoisothiazol-3-yl)-1-piperazinyl]ethyl]-6-chloro-1,3-dihydro-2H-indol-2-one]
- Dose of Increased Side Effect Risk (EPS risk) ([1]; Table 2): >80 mg/day
- EPS risk: dose of augmented risk ([1]; clinical use, Table 1): risk >80 mg/kg/day
